# Data from ChEMBL document CHEMBL5620413, “Novel pterostilbene derivatives ameliorate heart failure by reducing oxidative stress and inflammation through regulating Nrf2/NF-κB signaling pathway” (Eur J Med Chem, 2023).
# Activity calls are given as the source filed them. The rule behind the calls is not given here.
# Columns and labels:
# RAW264.7 [1] = experiment: Antiinflammatory activity in mouse RAW264.7 cells assessed as LPS-induced NO production preincubated for 1 hr followed by LPS treatment for 24 hrs by Griess reagent based assay; assay type: functional; details: time 25 hrs
# H9c2 [2] = experiment: Inhibition of ROS generation in rat H9c2 cells assessed as increase in DOX-reduced Nrf2 expression upto 10 uM preincubated for 1 hr followed by DOX treatment for 12 hrs by Western blot analysis; assay type: functional, cell-based; details: time 13.0 hrs
# RAW264.7 [3] = experiment: Inhibition of ROS generation in mouse RAW264.7 cells assessed as increase in DOX-reduced SOD expression upto 10 uM preincubated for 1 hr followed by DOX treatment for 12 hrs by Western blot analysis; assay type: functional, cell-based; details: time 13.0 hrs
# H9c2 [4] = experiment: Inhibition of ROS generation in rat H9c2 cells assessed as increase in DOX-reduced SOD expression upto 10 uM preincubated for 1 hr followed by DOX treatment for 12 hrs by Western blot analysis; assay type: functional, cell-based; details: time 13.0 hrs
# RAW264.7 [5] = experiment: Inhibition of ROS generation in mouse RAW264.7 cells assessed as increase in DOX-reduced CAT expression upto 10 uM preincubated for 1 hr followed by DOX treatment for 12 hrs by Western blot analysis; assay type: functional, cell-based; details: time 13.0 hrs
# RAW264.7 [6] = experiment: Inhibition of ROS generation in mouse RAW264.7 cells assessed as increase in DOX-reduced GPX1 expression upto 10 uM preincubated for 1 hr followed by DOX treatment for 12 hrs by Western blot analysis; assay type: functional, cell-based; details: time 13.0 hrs
# RAW264.7 [7] = experiment: Antiinflammatory activity against mouse RAW264.7 cells assessed as decrease in LPS-induced IL-1beta mRNA expression upto 10 uM preincubated for 1 hr followed by LPS treatment for 24 hrs by qRT-PCR analysis; assay type: functional, cell-based; details: time 25.0 hrs
# RAW264.7 [8] = experiment: Antiinflammatory activity against mouse RAW264.7 cells assessed as decrease in LPS-induced IL-6 expression upto 10 uM preincubated for 1 hr followed by LPS treatment for 24 hrs by Western blot analysis; assay type: functional, cell-based; details: time 25.0 hrs
# H9c2 [9] = experiment: Antiinflammatory activity against rat H9c2 cells assessed as decrease in DOX-induced IL-1beta expression upto 10 uM preincubated for 1 hr followed by DOX treatment for 12 hrs by Western blot analysis; assay type: functional, cell-based; details: time 13.0 hrs
# H9c2 [10] = experiment: Antiinflammatory activity against rat H9c2 cells assessed as decrease in DOX-induced IL-6 expression upto 10 uM preincubated for 1 hr followed by DOX treatment for 12 hrs by Western blot analysis; assay type: functional, cell-based; details: time 13.0 hrs
# RAW264.7 [11] = experiment: Antiinflammatory activity against mouse RAW264.7 cells assessed as decrease in LPS-induced NF-kappaB phosphorylation upto 10 uM preincubated for 1 hr followed by LPS treatment for 24 hrs by Western blot analysis; assay type: functional, cell-based; details: time 25.0 hrs
# H9c2 [12] = experiment: Antiinflammatory activity against rat H9c2 cells assessed as decrease in DOX-induced NF-kappaB phosphorylation upto 10 uM preincubated for 1 hr followed by DOX treatment for 12 hrs by Western blot analysis; assay type: functional, cell-based; details: time 13.0 hrs
# Mus musculus [13] = experiment: Protection against cardiac dysfunction C57BL/6J mouse model assessed as increase in DOX-reduced LVEF at 7 mg/kg, ip administered daily for 4 weeks by echocardiography; assay type: functional, organism-based
# Mus musculus [14] = experiment: Protection against cardiac dysfunction C57BL/6J mouse model assessed as decrease in DOX-induced accumulation of inflammatory cells at 7 mg/kg, ip administered daily for 4 weeks by H and E staining based analysis; assay type: functional, organism-based
# Mus musculus [15] = experiment: Protection against cardiac dysfunction C57BL/6J mouse model assessed as decrease in DOX-induced alpha-SMA expression at 7 mg/kg, ip administered daily for 4 weeks by Western blot analysis; assay type: functional, organism-based
# Mus musculus [16] = experiment: Protection against cardiac dysfunction C57BL/6J mouse model assessed as decrease in DOX-induced TGF-beta1 expression at 7 mg/kg, ip administered daily for 4 weeks by Western blot analysis; assay type: functional, organism-based
# Mus musculus [17] = experiment: Protection against cardiac dysfunction C57BL/6J mouse model assessed as increase in DOX-reduced cardiac SOD1 expression at 7 mg/kg, ip administered daily for 4 weeks by Western blot analysis; assay type: functional, organism-based
# Mus musculus [18] = experiment: Protection against cardiac dysfunction C57BL/6J mouse model assessed as increase in DOX-reduced cardiac NQO1 expression at 7 mg/kg, ip administered daily for 4 weeks by Western blot analysis; assay type: functional, organism-based
# Mus musculus [19] = experiment: Protection against cardiac dysfunction C57BL/6J mouse model assessed as increase in DOX-reduced cardiac CAT expression at 7 mg/kg, ip administered daily for 4 weeks by Western blot analysis; assay type: functional, organism-based
# Mus musculus [20] = experiment: Protection against cardiac dysfunction C57BL/6J mouse model assessed as increase in DOX-reduced cardiac Nrf2 expression at 7 mg/kg, ip administered daily for 4 weeks by Western blot analysis; assay type: functional, organism-based
# Mus musculus [21] = experiment: Antiinflammatory activity in cardiac dysfunction C57BL/6J mouse model assessed as decrease in DOX-induced TNF-alpha expression at 7 mg/kg, ip administered daily for 4 weeks by Western blot analysis; assay type: functional, organism-based
smiles,measurement,setting,value
CCCCOc1ccc(/C=C/c2cc(OC)cc(OC)c2C2CC(C)=NN2C(C)=O)cc1 (stereo unspecified),Activity,RAW264.7 [1],0.198 µM
same,inhibition,H9c2 [2],Active
same,inhibition,RAW264.7 [3],Active
same,inhibition,H9c2 [4],Active
same,inhibition,RAW264.7 [5],Active
same,inhibition,RAW264.7 [6],Active
same,Activity,RAW264.7 [7],Active
same,Activity,RAW264.7 [8],Active
same,Activity,H9c2 [9],Active
same,Activity,H9c2 [10],Active
same,Activity,RAW264.7 [11],Active
same,Activity,H9c2 [12],Active
same,Activity,Mus musculus [13],Active
same,Activity,Mus musculus [14],Active
same,Activity,Mus musculus [15],Active
same,Activity,Mus musculus [16],Active
same,Activity,Mus musculus [17],Active
same,Activity,Mus musculus [18],Active
same,Activity,Mus musculus [19],Active
same,Activity,Mus musculus [20],Active
same,Activity,Mus musculus [21],Active
